The values below come from patent US20220289794A1, “SYNTHETIC ANTIMICROBIAL PEPTIDES” (priority 2019, published 2022).

Data set [1] relates to Methicillin-resistant Staphylococcus aureus MRSA (ATCC BAA-1556). Particulars: ATCC BAA-1556.
The test system of the next data set is S. aureus ATCC 29213. The settings on record: ATCC 29213.
Data set [2] relates to Pseudomonas aeruginosa (ATCC 27883). The settings on record: ATCC 27883.
The subject of data set [3] is Escherichia coli (ATCC 25922). Particulars: ATCC 25922.
For the next data set, the system named is human red blood cells. Details: unit not given beside the values.

≈ marks a conversion by molar mass, not a printed value. Non-standard residues stand in square brackets, D forms with d. Residues, ends and D or L forms follow the SMILES beside them. Dip = N[C@H](C(=O)O)C(c1ccccc1)c1ccccc1; 2Nal = N[C@@H](Cc1ccc2ccccc2c1)C(=O)O; d2Nal = N[C@H](Cc1ccc2ccccc2c1)C(=O)O; Dab = NCC[C@H](N)C(=O)O

Turning to `N=C(N)NCCC[C@H](NC(=O)[C@H](CCCNC(=N)N)NC(=O)[C@H](CCCNC(=N)N)NC(=O)[C@H](CCCNC(=N)N)NC(=O)[C@@H](N)CCCNC(=N)N)C(=O)N[C@@H](Cc1ccc2ccccc2c1)C(=O)N[C@@H](Cc1ccc2ccccc2c1)C(=O)N[C@@H](Cc1ccc2ccccc2c1)C(=O)O` [IFX-013-1, NH2-Arg-Arg-Arg-Arg-Arg-NaI-NaI-NaI-OH] (H-RRRRR[2Nal][2Nal][2Nal]-OH), the “MIC MRSA ATCC BAA-1556” value in data set [1] came out at 3.1 µg/mL (≈ 2.23 µM). Further, the “MIC S. aureus ATCC 29213” value against S. aureus ATCC 29213 came out at 3.1 µg/mL (≈ 2.23 µM). Also, the “MIC P. aeruginosa ATCC 27883” value in data set [2] came out at 25 µg/mL (≈ 18 µM). Further, the “MIC E. coli ATCC 25922” value in data set [3] was determined as 25 µg/mL (≈ 18 µM). The compound also had an HC50 with human red blood cells of 200.

For `N=C(N)NCCC[C@H](NC(=O)[C@H](CCCNC(=N)N)NC(=O)[C@H](CCCNC(=N)N)NC(=O)[C@@H](N)CCCNC(=N)N)C(=O)N[C@@H](Cc1ccc2ccccc2c1)C(=O)N[C@@H](Cc1c[nH]c2ccccc12)C(=O)N[C@@H](Cc1ccc2ccccc2c1)C(=O)O` [IFX-030-1, NH2-R-R-R-R-NaI-Trp-NaI-OH] (H-RRRR[2Nal]W[2Nal]-OH), the “MIC MRSA ATCC BAA-1556” value in data set [1] worked out at 6.2 µg/mL (≈ 5.07 µM). Moreover, the “MIC S. aureus ATCC 29213” value in the data set with S. aureus ATCC 29213 is 6.2 µg/mL (≈ 5.07 µM). The “MIC P. aeruginosa ATCC 27883” value in data set [2] was determined as 25 µg/mL (≈ 20.4 µM). Also, the “MIC E. coli ATCC 25922” value in data set [3] turned out to be 12.5 µg/mL (≈ 10.2 µM). For the same compound, in the data set with human red blood cells, the HC50 is 430.

As for `N=C(N)NCCC[C@H](NC(=O)[C@H](CCCNC(=N)N)NC(=O)[C@@H](N)CCCNC(=N)N)C(=O)N[C@@H](Cc1ccc2ccccc2c1)C(=O)N[C@@H](Cc1c[nH]c2ccccc12)C(=O)N[C@@H](Cc1ccc2ccccc2c1)C(=O)O` [IFX-024-1, NH2-R-R-R-NaI-Trp-NaI-OH] (H-RRR[2Nal]W[2Nal]-OH), the “MIC MRSA ATCC BAA-1556” value in data set [1] is 6.2 µg/mL (≈ 5.81 µM). Besides, the “MIC S. aureus ATCC 29213” value against S. aureus ATCC 29213 is 6.2 µg/mL (≈ 5.81 µM). Moreover, the “MIC P. aeruginosa ATCC 27883” value in data set [2] was 25 µg/mL (≈ 23.4 µM). Moreover, the “MIC E. coli ATCC 25922” value in data set [3] worked out at 12.5 µg/mL (≈ 11.7 µM). This compound also displayed an HC50 in the data set with human red blood cells of 410.

For the compound `N=C(N)NCCC[C@H](NC(=O)[C@H](CCCNC(=N)N)NC(=O)[C@@H](N)CCCNC(=N)N)C(=O)N[C@H](C(=O)N[C@H](C(=O)N[C@@H](Cc1c[nH]c2ccccc12)C(=O)O)C(c1ccccc1)c1ccccc1)C(c1ccccc1)c1ccccc1` [IFX-022-1, NH2-R-R-R-Dip-Dip-Trp-OH] (H-RRR[Dip][Dip]W-OH), the “MIC MRSA ATCC BAA-1556” value in data set [1] was determined as 12.5 µg/mL (≈ 11.2 µM). Also, the “MIC S. aureus ATCC 29213” value with S. aureus ATCC 29213 is 12.5 µg/mL (≈ 11.2 µM). Also, the “MIC P. aeruginosa ATCC 27883” value in data set [2] was 50 µg/mL (≈ 44.7 µM). Moreover, the “MIC E. coli ATCC 25922” value in data set [3] came out at 25 µg/mL (≈ 22.3 µM). For the same compound, the HC50 in the data set with human red blood cells was determined as 380.

Consider `N=C(N)NCCC[C@H](NC(=O)[C@H](CCCNC(=N)N)NC(=O)[C@H](CCCNC(=N)N)NC(=O)[C@@H](N)CCCNC(=N)N)C(=O)N[C@@H](Cc1ccc2ccccc2c1)C(=O)N[C@@H](Cc1ccc2ccccc2c1)C(=O)N[C@@H](Cc1ccc2ccccc2c1)C(=O)N[C@@H](Cc1ccc2ccccc2c1)C(=O)O` [IFX-006-1, NH2-Arg-Arg-Arg-Arg-NaI-NaI-NaI-NaI-OH] (H-RRRR[2Nal][2Nal][2Nal][2Nal]-OH), for which the “MIC MRSA ATCC BAA-1556” value in data set [1] came to 6.2 µg/mL (≈ 4.33 µM). Besides, the “MIC S. aureus ATCC 29213” value in the data set with S. aureus ATCC 29213 is 3.1 µg/mL (≈ 2.17 µM). Also, the “MIC P. aeruginosa ATCC 27883” value in data set [2] is greater than 100 µg/mL. Also, in data set [3], the “MIC E. coli ATCC 25922” value came out at 50 µg/mL (≈ 34.9 µM). The compound further had an HC50 with human red blood cells of 140.

Take `N=C(N)NCCC[C@H](NC(=O)[C@H](CCCNC(=N)N)NC(=O)[C@@H](N)CCCNC(=N)N)C(=O)N[C@@H](CCCNC(=N)N)C(=O)N[C@H](C(=O)N[C@@H](Cc1c[nH]c2ccccc12)C(=O)N[C@H](C(=O)O)C(c1ccccc1)c1ccccc1)C(c1ccccc1)c1ccccc1` [IFX-027-1, NH2-R-R-R-R-Dip-Trp-Dip-OH] (H-RRRR[Dip]W[Dip]-OH): in data set [1], the “MIC MRSA ATCC BAA-1556” value worked out at 3.1 µg/mL (≈ 2.43 µM). Further, the “MIC S. aureus ATCC 29213” value in the data set on S. aureus ATCC 29213 amounted to 3.1 µg/mL (≈ 2.43 µM). Further, the “MIC P. aeruginosa ATCC 27883” value in data set [2] was 25 µg/mL (≈ 19.6 µM). Further, the “MIC E. coli ATCC 25922” value in data set [3] came to 12.5 µg/mL (≈ 9.8 µM). Besides, in the data set on human red blood cells, the HC50 is recorded as 910.

In the case of `NCCCC[C@@H]1NC(=O)[C@H](CCCCN)NC(=O)[C@H](CCCCN)NC(=O)[C@H](C(c2ccccc2)c2ccccc2)NC(=O)[C@H](C(c2ccccc2)c2ccccc2)NC(=O)[C@H](C(c2ccccc2)c2ccccc2)NC(=O)[C@H](CCCCN)NC(=O)[C@H](CCCCN)NC1=O` [IFX-015, c[Lys-Lys-Lys-Lys-Lys-Dip-Dip-Dip]] (cyclo([Dip][Dip][Dip]KKKKK)), the “MIC MRSA ATCC BAA-1556” value in data set [1] is 12.5 µg/mL (≈ 9.54 µM). Besides, the “MIC S. aureus ATCC 29213” value with S. aureus ATCC 29213 is 6.2 µg/mL (≈ 4.73 µM). The “MIC P. aeruginosa ATCC 27883” value in data set [2] was greater than 100 µg/mL. Further, the “MIC E. coli ATCC 25922” value in data set [3] was 50 µg/mL (≈ 38.1 µM). In addition, in the data set on human red blood cells, the HC50 amounted to 480.

On to `N=C(N)NCCC[C@H](NC(=O)[C@H](CCCNC(=N)N)NC(=O)[C@H](CCCNC(=N)N)NC(=O)[C@@H](N)CCCNC(=N)N)C(=O)N[C@@H](Cc1c[nH]c2ccccc12)C(=O)N[C@H](C(=O)N[C@H](C(=O)O)C(c1ccccc1)c1ccccc1)C(c1ccccc1)c1ccccc1` [IFX-026-1, NH2-R-R-R-R-Trp-Dip-Dip-OH] (H-RRRRW[Dip][Dip]-OH), for which, in data set [1], the “MIC MRSA ATCC BAA-1556” value was found to be 6.2 µg/mL (≈ 4.86 µM). For the same compound, in the data set with S. aureus ATCC 29213, the “MIC S. aureus ATCC 29213” value is 6.2 µg/mL (≈ 4.86 µM). For the same compound, the “MIC P. aeruginosa ATCC 27883” value in data set [2] was 25 µg/mL (≈ 19.6 µM). Moreover, the “MIC E. coli ATCC 25922” value in data set [3] was 12.5 µg/mL (≈ 9.8 µM). In addition, the HC50 with human red blood cells is 430.

`N=C(N)NCCC[C@@H]1NC(=O)[C@H](CCN)NC(=O)[C@@H](Cc2ccc3ccccc3c2)NC(=O)[C@@H](Cc2ccc3ccccc3c2)NC(=O)[C@H](Cc2c[nH]c3ccccc23)NC(=O)[C@@H](CCCNC(=N)N)NC(=O)[C@H](CCCNC(=N)N)NC(=O)[C@@H](CCCNC(=N)N)NC1=O` [IFX-056, c[Dab-Arg-arg-Arg-arg-Trp-naI-naI]] (cyclo([Dab]R[dR]R[dR]W[d2Nal][d2Nal])): in data set [1], the “MIC MRSA ATCC BAA-1556” value is 64 µg/mL (≈ 49 µM). Further, the “MIC S. aureus ATCC 29213” value in the data set on S. aureus ATCC 29213 is 32 µg/mL (≈ 24.5 µM). In addition, in data set [2], the “MIC P. aeruginosa ATCC 27883” value turned out to be 32 µg/mL (≈ 24.5 µM). In addition, the “MIC E. coli ATCC 25922” value in data set [3] worked out at 32 µg/mL (≈ 24.5 µM). In addition, in the data set with human red blood cells, the HC50 is 415.

`N=C(N)NCCC[C@@H]1NC(=O)[C@H](CCCNC(=N)N)NC(=O)[C@H](CCCNC(=N)N)NC(=O)[C@@H](Cc2c[nH]c3ccccc23)NC(=O)[C@@H](Cc2c[nH]c3ccccc23)NC(=O)[C@@H](Cc2c[nH]c3ccccc23)NC(=O)[C@@H](Cc2c[nH]c3ccccc23)NC(=O)[C@H](CCCNC(=N)N)NC1=O` [IFX-035, c[Arg-Arg-Arg-Arg-trp-trp-trp-trp]] (cyclo(RRRR[dW][dW][dW][dW])): in data set [1], the “MIC MRSA ATCC BAA-1556” value was 6.2 µg/mL (≈ 4.53 µM). Also, the “MIC S. aureus ATCC 29213” value against S. aureus ATCC 29213 is 6.2 µg/mL (≈ 4.53 µM). Besides, in data set [2], the “MIC P. aeruginosa ATCC 27883” value was found to be 25 µg/mL (≈ 18.3 µM). For the same compound, in data set [3], the “MIC E. coli ATCC 25922” value amounted to 12.5 µg/mL (≈ 9.13 µM). In the data set on human red blood cells, the HC50 was found to be 670.

On to `N=C(N)NCCC[C@@H]1NC(=O)[C@H](CCCNC(=N)N)NC(=O)[C@H](CCCNC(=N)N)NC(=O)[C@H](Cc2ccc3ccccc3c2)NC(=O)[C@H](Cc2ccc3ccccc3c2)NC(=O)[C@H](Cc2ccc3ccccc3c2)NC(=O)[C@H](CCCNC(=N)N)NC(=O)[C@H](CCCNC(=N)N)NC1=O` [IFX-013, c[Arg-Arg-Arg-Arg-Arg-NaI-NaI-NaI]] (cyclo([2Nal][2Nal][2Nal]RRRRR)), for which the “MIC MRSA ATCC BAA-1556” value in data set [1] amounted to 6.2 µg/mL (≈ 4.52 µM). Besides, the “MIC S. aureus ATCC 29213” value against S. aureus ATCC 29213 is 6.2 µg/mL (≈ 4.52 µM). In addition, the “MIC P. aeruginosa ATCC 27883” value in data set [2] stood at 25 µg/mL (≈ 18.2 µM). For the same compound, the “MIC E. coli ATCC 25922” value in data set [3] was determined as 50 µg/mL (≈ 36.4 µM). The HC50 in the data set on human red blood cells stood at 230.
